This is an account of results in EP2594271A1, “2-[(3,5-difluoro-3'-methoxy-1,1'-biphenyl-4-yl)amino]nicotinic acid for the treatment of psoriasis” (Almirall, S.A., priority 2011, dated 2013).

Series [1] deals with peripheral blood mononuclear cells. The series is described as follows: in vitro assay using peripheral blood mononuclear cells. The conditions noted are these: compared with leflunomide. In kind it is cell-based.
Details of series [2]: species or system mice. The conditions noted are these: mouse, in vivo, ip.
The test system of a further series is epidermal hyperplasia. Nature of the series: rat model of TPA-induced epidermal hyperplasia. In kind it is in vivo, Wistar rats. The conditions noted are these: rat dorsal skin. On the procedure: A rat model of epidermal hyperplasia was used to test the pharmacological activity of 2-[(3,5-difluoro-3'-methoxy-1,1'-biphenyl-4-yl)amino]nicotinic acid.
Wistar rats (200- 250 g) were obtained from Harland (Sant Feliu de Codines, Spain) and maintained in standard Chow diet with light:dark cycles and allowed to feed ad libitum during all procedures. TPA (12-O-tetradecanoylphorbol-13-acetate) was purchased from Sigma Chemicals and a stock solution of 10 mg/ml was prepared in acetone.
On the morning of day 1, the back of each animal (n=5) was shaved so that at least three 2x2 sq cm nude skin areas were uncovered. Six hours later, 200 µL of acetone (vehicle) or a solution of TPA ([…]) in acetone was applied onto the skin by employing a silicone pad in which three 2x2 sq cm areas had been cut out. Area A received acetone (vehicle), whereas B and C received TPA. Twenty-four hours after TPA application, a solution of the active ingredient 2-[(3,5-difluoro-3'-methoxy-1,1'-biphenyl-4-yl)amino]nicotinic acid (1% in acetone) was applied to area C, whereas the remainder areas received acetone. Treatment continued for 7 days with daily application of 2-[(3,5-difluoro-3'-methoxy-1,1'-biphenyl-4-yl)amino]nicotinic acid or acetone. Six hours after last application, animals were sacrificed and skin was excised and processed for histological examination using H/E staining. Hyperplasia was evaluated following a score of 0 (normal skin thickness, 2-3 layers) to 3 (marked hyperplastic epidermis, >8 cell layers) by a blinded expert pathologist.

The subject of a further series is psoriasis. The conditions noted are these: 190 subjects with active psoriatic arthritis and psoriasis, 24 weeks; people with mild to moderate psoriasis; cited from earlier work.
Where [3] appears, read: topical 1% in acetone, 7 applications, histology day 8.

“Also recorded” adds a separate entry of the source.

In the case of `COc1cccc(-c2cc(F)c(Nc3ncccc3C(=O)O)c(F)c2)c1` [2-[(3,5-difluoro-3'-methoxy-1,1'-biphenyl-4-yl)amino]nicotinic acid], the potency result in series [1] was “much higher potency than leflunomide”. Also, in series [2], the “levels of bilirrubin in plasma” value was “does not show an increase” and the “levels of transaminases in plasma” value is given as “does not show an increase”. For the same compound, in the series on epidermal hyperplasia (setting [3]), the “inflammation induced by TPA (dermal)” value was “counteracts; also recorded: able to reduce epidermal hyperplasia and dermal inflammation”; the “mixed perivascular mononuclear infiltration (macrophages, lymphocytes and mastocytes)” value is “greatly diminished”. In addition, the “hyperplasia (histological score 0 to 3)” value in the series on epidermal hyperplasia (topical once daily application of 1% in acetone for 7 days, H/E staining, day 8) is “reverted; also recorded: counteracts; also recorded: able to reduce epidermal hyperplasia”.
On to `Cc1oncc1C(=O)Nc1ccc(C(F)(F)F)cc1` [leflunomide, 4-Isoxazolecarboxamide, 5-methyl-N-[4-(trifluoromethyl)phenyl]-], for which the “benefit compared with placebo” value with psoriasis is recorded as “only a moderate benefit compared with placebo”.
